Assay results from patent publication US10940201B2, “Nucleic acid derivative having immunostimulatory activity” (Shionogi & Co., Ltd., priority 2015, dated 2021).

What was measured:
[1] = test system: antigen-specific CTL; test: Antigen-specific CTL inducibility in the absence of a tumor antigen peptide; assay type: in vivo, mouse
Method: On 7 days after second vaccination, the blood was collected, red blood cells was removed by BD Pharm Lyse (BD pharmingen), and the white blood cells were suspended in FACS buffer (1% fetal bovine serum, 2 mM PBS with EDTA). Anti-mouse CD16/32 monoclonal antibody (BioXcell) was added thereto, and Fc receptor blocking was carried out at 4° C. for 30 minutes. […] Then, staining was carried out with DAPI (Invitrogen) and the cells were washed twice with FACS buffer. It was resuspended in FACS buffer and analyzed by FACS verse Flow Cytometer (BD bioscience) and FAC Suite software (BD bioscience). For analysis, after DAPI negative fraction was gated, white blood cells fraction were provided using forward and side-way scattering as indicators. In the white blood cells fraction, both positive cells of Alexa 647-CD8 and PE-H-2Kb Tetramer were defined as CTLs. CTL ratio in white blood cells was used for evaluation.

[2] = test system: B16F10 cells; test: Anti-tumor effect in the absence of a tumor antigen peptide; assay type: in vivo, mouse; conditions: Table 69, compared to ODN2006 (SEQ-49)
Method: After immunization by TRP2 peptide vaccine, B16F10 cells (ATTC) which is mouse melanoma expressing TRP2 protein was subcutaneously transplanted to evaluate anti-tumor effect. In a similar method to Example 3 A), on the next day that tetramer-positive ratio in peripheral blood of mouse vaccinated twice every 7 days was observed, B16F10 cells (1×10^5 cells/mouse) were subcutaneously transplanted in the right shoulder. The major and minor axes of the engrafted tumor were measured every 2 to 3 days, and the tumor volume was calculated by the formula: (major axis×minor axis^2)/2 Calculation method for indicators of anti-tumor effect For the adjuvant comprising ODN1826 100·(average tumor volume of adjuvant group)/(average tumor volume of ODN1826 group) For the adjuvant comprising ODN2006 100·(average tumor volume of adjuvant group)/(average tumor volume of ODN2006 group)
Antigen-specific CTL inducibility and anti-tumor effect of ODN2006 (SEQ-49) and SEQ-121 in the absence of a tumor antigen peptide were evaluated. In similar methods of A) and B) of Example 3, the effect of vaccine without a tumor antigen peptide was verified. Both of the antigen-specific CTL values of SEQ-49 and SEQ-121 were undetectable.

[3] = test system: recombinant PCRV protein; test: Inducibility of antibody production in immunization by PCRV antigen vaccine (antibody titer); assay type: in vivo; conditions: A/J mice, recombinant PCRV protein with adjuvant, intradermal; antiserum Day 33; FIG. 15
Method: Perv nucleotide sequence (SEQ ID NO: 48) derived from Pseudomonas aeruginosa Strain PAO1 was cloned at NdeI-XhoI site in pET21a vector, and Escherichia coli strain BL21 (DE3) was transformed with the prepared plasmid. Strain perV-BL21 (DE3) was cultured in 500 mL of LB/Ampicillin liquid medium at 37° C., and 200 μL of 0.1 M IPTG was added when OD600 became 0.5 to induce expression of recombinant PCRV protein. After culturing at 16° C. for 18 hours, bacteria was separated by a centrifuge, and 15 ml of Buffer A (50 mM Tris-HCl (pH8.0), 0.2M NaCl) comprising 0.5% lysozyme (SIGMA Corporation) was added. After putting at 4° C. for 30 minutes, ultrasonic treatment was carried out. After centrifugation at 12,000 rpm for 10 minutes, soluble fraction was obtained. 1 mL of Ni-NTA agarose gel (QIAGEN) was added to Polyprep column (BIO-RAD Laboratories, Inc) and equilibrated with 10 mL of Buffer A. Soluble fraction was added to the column and passed. […] The resulting recombinant PCRV protein was measured the concentration with BCA assay kit (PIERCE) and kept at −80° C. […]
Antibody titer was measured as blow. […] 20 μL/well of 0.5 N sulfuric acid (Nacalai) was added, and absorbance at 450 nm was measured with a plate reader. The dilution ratio when absorbance at 450 nm is 1.0 was calculated and put as an antibody titer.

## ODN2006 [SEQ-49]
[1]; Table 69, in the absence of a tumor antigen peptide
  Ratio of average value of antigen-specific CTL: Undetectable
[1]; absence of a tumor antigen peptide
  antigen-specific CTL values: undetectable
[2]
  Tumor inhibition rate (Day 12 after transplantation): 0.00%
[3]
  antibody titer (dilution ratio when absorbance at 450 nm is 1.0): 5.3×10^5
